The values that follow come from patent publication US9962351B2, “Small molecule substance for improving sensitivity of bacteria to antibiotics” (priority 2012, dated 2018).

Assay [1] concerns ampicillin-resistant Escherichia coli (AMP-R). The assay is classed as cell-based. How it is done: Bacterium cultures of 20 mL were collected and centrifuged at 8,000 rpm for 5 minutes. The bacterial pellets were washed with equal volume of 0.85% saline solution, suspended in M9 medium containing 10 mM sodium acetate and then adjusted to OD600 of 0.5. […] These mixtures were cultured in a shaker at 200 rpm at 37° C. for 4 h. Then 100 μL of bacterial suspension was used for bacterial plate counting.
To investigate the effect of antibiotic dose on the sensitivity of bacteria to antibiotics by glutamine, 20 mM glutamine and 20, 40, 80, 160, 240, 320 and 400 μg/mL ampicillin were used to treat ampicillin-resistant Escherichia coli for 4 hours, and then bacterial plate counting was conducted. The survival rates of bacteria with and without glutamine were compared at the same antibiotic concentration.
To investigate the effect of exposure time on the killing efficiency, the viable counts of bacteria were counted during 1-8 hours after spiked with 20 mM glutamine and 160 μg/mL ampicillin.
To investigate the effect of glutamine concentration on killing efficiency and the optimum bactericidal concentrations, different concentrations of glutamine were added to 160 μg/mL ampicillin. The number of live bacteria was counted after 4 hours. The survival rate was calculated according to the formula below: viable counts at different concentration of glutamine/viable counts without glutamine×100%.
Single clone of ampicillin-resistant Escherichia coli was selected and inoculated in 100 mL LB medium and cultured at 200 rpm at 37° C. for 16 hours. Bacterial suspension of 20 mL was collected and centrifuged at 8,000 rpm for 5 min. The resulting bacterial pellets were washed with equal volume of 0.85% saline solution, suspended in M9 medium containing 10 mM sodium acetate and then adjusted to […] of 0.5. Aliquots of 5 mL bacterial cells were transferred to test tubes for further application.
The sample was added with 160 μg/mL ampicillin and 0-20 Mm glucose, then cultured in a shaker at 200 rpm at 37° C. for 4 hours. The cell number was counted and survival rate was calculated. […]

Assay [2] concerns antibiotic-resistant bacteria in kidneys. Briefly: Mouse urinary tract infection model, bacterial content in kidneys. It counts as in vivo. The conditions noted are these: mice, tail i.v. twice-daily for 3 days; glutamine 100 mg kg−1, glucose 100 mg kg−1, ampicillin 320 mg kg−1 as present; saline group 16750. How it is done: (§1) In vivo experiments in mice, female mice (5 weeks, weighing 18-20 g) received surgical implantation in the urinary tract of PESO catheter tubes. The mice were randomly divided into six groups in 48 h after the surgery, five each group. The six groups included treatment with saline (group 1), 100 mg kg^−1 glutamine (group 2), 320 mg kg^−1 ampicillin (group 3), 100 mg kg^−1 glutamine plus 320 mg kg^−1 ampicillin (group 4), 100 mg kg^−1 glucose plus 320 mg kg^−1 ampicillin (group 5), and 100 mg kg^−1 glutamine and 100 mg kg^−1 glucose plus 320 mg kg^−1 ampicillin (group 6) by tail intravenous injection for 3 days, twice-daily. Catheter tubes were extracted in 24 hours after the last treatment. To dislodge biofilm cells, catheters were suspended in saline solution with ultrasonic. Serial dilutions and spot-plating were performed to determine the bacterial survival rate in biofilm. The survival rate was calculated as: viable counts in treatment group/viable counts in control group×100%.
Meanwhile, kidneys of mice were homogeneous with appropriate amount of saline. Bacterial content in kidneys was determined by plate counting method.

Assay [3] concerns ampicillin-resistant Escherichia coli biofilm. As to the kind of experiment: Biofilm on PE-50 catheters in vitro, survival rate. The assay is classed as cell-based. The conditions noted are these: 6 hours. As for the experimental part: (§2) Single clone of ampicillin-resistant Escherichia coli was selected and incubated in LB medium overnight, then transferred into 2 mL fresh LB medium according to the proportion of 1:200 dilutions and transferred to 6 mm ultraviolet sterilized PE-50 catheters. The catheters were inoculated in 1 mL LB at 37 for 24 h. The culture medium was changed every 24 hours for 3 days. The biofilm of ampicillin-resistant bacteria in PE50 catheters were washed with 1 mL sterile phosphate-buffered saline five times to remove loosely adherent cells, and then transferred to 1.5 mL EP tubes.
The test was divided into six groups: saline solution control, 20 mM glutamine, 160 μg/mL ampicillin, 160 μg/mL ampicillin plus 20 mM glutamine, 160 μg/mL ampicillin plus 20 mM glucose, 160 μg/mL ampicillin plus 20 mM glutamine and 20 mM glucose. The catheters were cultured in a shaker at 200 rpm at 37 for 6 hours. The bacterial biofilm was removed from catheters with sonication for 10 minutes. Serial dilutions and spot-plating were performed to determine the cell number. The bacterial survival rate was calculated as: viable counts in treatment group/viable counts in control group×100%.

Assay [4] shares this test system. As to the kind of experiment: Mouse urinary tract catheter biofilm model, bacterial survival rate in biofilm. It counts as in vivo. As to conditions: mice, tail intravenous injection twice-daily for 3 days; glutamine 100 mg kg−1, glucose 100 mg kg−1, ampicillin 320 mg kg−1 as present. As for the experimental part:
as §2
as §1, with “To dislodge biofilm cells, catheters were suspended in saline solution with ultrasonic. Serial dilutions and spot-plating were performed to determine the bacterial survival rate in biofilm.” left out

In assay [5] the test system is antibiotic-resistant Escherichia coli (passaged K12 BW25113). Briefly: MIC of single colony after 10 serial passages with antibiotic at 1/2 MIC. The assay is classed as cell-based. As for the experimental part: (§3) Escherichia coli is a bacterium that is most commonly found in the gut of human and animal. It mainly parasitizes in the intestines, and accounts for about 1% of the intestine bacteria. Minimum inhibitory concentration (MIC) of Escherichia coli K12 BW25113 for ten kinds of antibiotics was detected with double dilution method. Escherichia coli K12 BW25113 of 10^5 colony forming unit/ml was cultured respectively in Luria-Bertani (LB) liquid medium separately with each of ten antibiotics at the concentration of ½ MIC at 37° C., and was serially passaged 10 times, so that the MIC of single colony was determined.

The subject of assay [6] is Escherichia coli K12 BW25113. As to the kind of experiment: MIC by double dilution method, initial bacteria. It counts as cell-based. The conditions noted are these: Escherichia coli, BW25113, read-out: MIC0. How it is done:
as §3

For assay [7], the system named is Escherichia coli K12 BW25113 (control bacteria). Briefly: Viable counts and survival rate of control bacteria. It counts as cell-based. As to conditions: 160 μg/mL ampicillin, without or with 20 mM glutamine, 4 hours. How it is done: The viable counts and survival rate of bacteria were calculated after added with 20 mM glutamine and 160 μg/mL ampicillin for 4 hours.
The viable counts and survival rate of bacteria were calculated after added with 20 mM glutamine and 4 kinds of penicillins (does for control bacteria were: ampicillin 25 μg/mL, penicillin G 200 μg/mL, amoxicillin 20 μg/mL, carbenicillin 100 μg/mL; does for antibiotic resistant bacteria were: ampicillin 320 μg/mL, penicillin G 2560 μg/mL, amoxicillin 512 μg/mL, carbenicillin 320 μg/mL) for 4 hours.
The viable counts and survival rate of bacteria were calculated after added with 20 mM glutamine and antibiotics at the concentration of 8 times of MIC for 4 hours.

The structures appear in SMILES notation. Converted amounts (≈) assume the structure as drawn. Where two headings read alike, the source gives them in different places.

For the molecule `CC1(C)S[C@@H]2[C@H](NC(=O)[C@H](N)c3ccccc3)C(=O)N2[C@H]1C(=O)O` [ampicillin], the survival rate in assay [1] (20 μg/mL ampicillin, without or with 20 mM glutamine, 4 hours) turned out to be 99.81%; in assay [1] (40 μg/mL ampicillin, without or with 20 mM glutamine, 4 hours), 97.27%; in assay [1] (80 μg/mL ampicillin, without or with 20 mM glutamine, 4 hours), 95.55%; in assay [1] (160 μg/mL ampicillin without glutamine, 7 hours), 74%; in assay [1] (160 μg/mL ampicillin without glutamine, after 8 hours), 66.19%; in assay [1] (160 μg/mL ampicillin, without glucose or with increasing glucose (0-20 Mm), 4 hours), 94.33%. Moreover, the survival rate worked out at 94.33% in assay [1] (160 μg/mL ampicillin, without glutamine or with increasing glutamine concentration, 4 hours); 93.72% in assay [1] (160 μg/mL ampicillin, without or with 20 mM glutamine, 4 hours); 86.72% in assay [1] (240 μg/mL ampicillin, without or with 20 mM glutamine, 4 hours); 83.51% in assay [1] (320 μg/mL ampicillin, without or with 20 mM glutamine, 4 hours); 67.15% in assay [1] (400 μg/mL ampicillin, without or with 20 mM glutamine, 4 hours); 74.22% in assay [7]. In assay [1] (160 μg/mL ampicillin without glutamine, during 1-4 hours), the “viable counts of bacteria” value is “remained unchanged”. Besides, the “bacterial content in kidneys” value in assay [2] was found to be 9129 cell/g. In addition, the “elimination of biofilm by single agent” value in assay [3] (20 mM glutamine or 160 μg/mL ampicillin alone) is on record as “did not eliminate the antibiotic-resistant bacterium biofilm”. The “bacterial survival rate in biofilm (treatment group/saline control)” value in assay [3] (20 mM glutamine, 160 μg/mL ampicillin, 20 mM glucose as present) turned out to be 92.84%. Moreover, the “bacterial survival rate in catheter biofilm in comparison with saline control” value in assay [4] was 76.81%. Besides, the MIC in assay [5] (Escherichia coli, BW25113, read-out: MIC10) came out at 400 µg/mL; in assay [6] it was 6.25 µg/mL (≈ 17.9 µM). In assay [5] (ratio of MIC after to before passage), the MIC10/MIC0 amounted to 64.
